Experimental data taken from patent US8741843B2, “Compositions and methods for inducing angiogenesis” (priority 2006, dated 2014).
“Also recorded” adds a separate entry of the source.

What was measured:
[1] = system: endothelial cells (HUVEC); experiment: Migration of endothelial cells under hypoxia (Chemicon QCM 96-well Migration Assay); assay type: cell-based, human; settings: 5 hours hypoxia, 10 ng/ml
Procedure: FIG. 6 is a graph depicting migration of endothelial cells under hypoxia conditions. Endothelial cells (25,000) were incubated in endothelial cells growth medium free supplements in the migration chamber. ADOPep1 (SEQ ID NO:2), 2 (SEQ ID NO:3) and 3 (SEQ ID NO:4) were added to the feeder tray of the migratory kit at 1, 10 and 100 ng/ml for 5 hours hypoxia. Results were determined by a fluorescence ELISA reader and expressed as increase in percentage migration in Relative fluorescence Units.
FIGS. 26a-b are graphs depicting induction of endothelial cell migration under hypoxia by the ADOPEP motifs. Endothelial cells were incubated for 5 hours under hypoxia conditions in the presence of increasing concentrations of ADOPep1 (red line), peptide motif A (dark blue line), peptide motif B (green line) or peptide motif C (light blue line) and the migration of endothelial cells was detected. FIG. 26a—experiment 1; FIG. 26b—experiment 2.
Endothelial cell migration was evaluated by the Chemicon QCM 96-well Migration Assay (Chemicon International, Calif., USA) according to manufacturer's instructions. This kit utilizes a membrane with an 8 μm pore size. Migratory cells on the bottom of the insert membrane are dissociated from the membrane when incubated with cell detachment buffer provided by the kit. […] For the migration assay, HUVEC from passage 3 were incubated in endothelial cell (EC) growth medium free of supplements. After trypsinization, 25,000 EC were incubated in the migration chamber. ADOPeps were added at concentrations of 1, 10 and 100 ng/ml in the feeder tray for chemoattractant migration assay. Time of incubation was 5 hours for endothelial cells under hypoxic conditions. Results were determined in a Fluorescent ELISA reader at 480/520 nm.

endothelial cells [2] = experiment: Tube formation of endothelial cells on Cultrex Basement Membrane Extract; assay type: cell-based, human; settings: 10 ng/ml, 18 hours, starvation and normoxic conditions
Procedure: FIG. 27 is a graph depicting induction of tube formation using AdoPep1 and Motif A (SEQ ID NO:7) but not the scrambled sROY peptide. Endothelial cells were incubated in media without supplements for 24 hours, and 50,000 cells were then transferred in 500 μl medium to 24-well plates precoated with 250 μl Cultrex Basement Membrane Extract (with reduced growth factors) (R&D Systems, Minneapolis, Minn., USA). AdoPep1, Motif A and scrambled sROY peptides were added at an optimal concentration of 10 ng/ml (based on preliminary findings), and the slides were examined by light microscopy after 18 hours incubation. The results represent average±SD of three experiments using 3 different cords. The length of the network of connected cells (tube formation) was measured in micrometers in 5 different areas of each well using Image-Pro Plus Image software (Media Cybernetics, Silver Spring, Md., USA).

GRP78 = GRP78 (Homo sapiens, UniProt P11021); experiment: GRP78 receptor internalization in endothelial cells under hypoxia; assay type: cell-based; set-up: endogenous in cells; host or cells: HUVEC / endothelial cells from umbilical cords, under normoxia or hypoxia; settings: 10 ng/ml, after 5 minutes of incubation
GRP78, sequence (P11021 19-654): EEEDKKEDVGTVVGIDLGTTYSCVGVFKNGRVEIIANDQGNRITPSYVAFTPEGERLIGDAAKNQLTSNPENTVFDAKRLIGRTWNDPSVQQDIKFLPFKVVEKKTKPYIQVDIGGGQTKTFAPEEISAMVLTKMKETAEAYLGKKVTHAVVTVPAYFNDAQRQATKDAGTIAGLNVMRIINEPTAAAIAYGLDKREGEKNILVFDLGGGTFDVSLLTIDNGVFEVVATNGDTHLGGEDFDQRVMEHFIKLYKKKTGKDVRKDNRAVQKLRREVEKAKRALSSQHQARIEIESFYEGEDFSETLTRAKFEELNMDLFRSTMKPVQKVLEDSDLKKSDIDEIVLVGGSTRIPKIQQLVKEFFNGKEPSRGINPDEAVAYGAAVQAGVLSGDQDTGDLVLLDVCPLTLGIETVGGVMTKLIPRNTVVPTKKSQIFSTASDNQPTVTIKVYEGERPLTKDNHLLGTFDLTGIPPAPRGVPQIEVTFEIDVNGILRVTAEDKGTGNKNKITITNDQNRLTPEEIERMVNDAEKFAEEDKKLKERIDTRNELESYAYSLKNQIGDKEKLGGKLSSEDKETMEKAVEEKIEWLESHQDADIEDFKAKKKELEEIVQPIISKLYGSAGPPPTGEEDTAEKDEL
Procedure: FIG. 29 is a graph depicting GRP78 receptor internalization response to ADOPep1 binding under hypoxic conditions. Endothelial cells were incubated under starvation conditions and hypoxia over night. Cells were incubated with 10 ng/ml ADoPep1 for 5, 15, 30 and 60 minutes. For membrane staining biotinylated AdoePep1 at 5 micrograms was added to intact cells for 1 hour and replaced by streptavidin FITC. For intracellular staining, cells were fixed with 1% paraformaldehyde followed by 15 minutes incubation with 0.1% saponin. After washing of cells, biotinylated AdoPep was added to the cells. The samples were analyzed with a FACScan (Beckton Dickinson). Membrane staining is shown by the blue bars (results are expressed in percentages, as normalized to untreated cells); Mean intracellular staining is shown by the purple bars (results are expressed in mean fluorescence);

endothelial cells [3] = experiment: Hypoxia-induced apoptosis of endothelial cells (Annexin V FITC/PI FACS); assay type: cell-based, human; settings: for effect on hypoxia-induced apoptosis of endothelial cells / percent apoptosis (PI/Annexin V): 24 hours hypoxia; for effect on hypoxia-induced apoptosis of endothelial cells: peptides 10 ng/ml; for percent apoptosis (PI/Annexin V): FIGS. 24a-d, hypoxia alone 79.3%
Procedure: FIG. 17 is a histogram depicting the effect of ADOPep1 on hypoxia-induced apoptosis of endothelial cells. Endothelial cells were exposed for 24 hours hypoxia in the presence of endothelial cell growth medium supplemented with 5% fetal calf serum (FCS), followed by incubation under hypoxia conditions with ADOPep1 (10 ng/ml) or anti-GRP78 antibody (100 ng/ml). Cells (100,000/tube) were incubated with Annexin-V FITC/PI for endothelial cell apoptosis determination. […] Similarly, anti-GRP78 antibody induced a reduction in apoptosis up to 32%.
FIGS. 24a-d are FACS analyses depicting hypoxia induced apoptosis. Endothelial cells were incubated for 24 hours under hypoxia conditions in the absence (FIG. 24a) or presence of 10 ng/ml of ADOPepe1 (FIG. 24b), peptide of Motif A (FIG. 24c) or peptide of motif C (FIG. 24d) and the level of apoptosis was determined using FACS analysis and the PI (shown on the Y axis)/Annexin V (shown on the X axis) markers.
FIG. 25 is a bar graph depicting the inhibition of hypoxia induced apoptosis by ADOPep 1, Motif A and Motif B. Endothelial cells were incubated for 24 hours under hypoxia conditions in the absence or presence of 10 ng/ml of ADOPepe1, Motif A, Motif B or motif C and the level of apoptosis was determined using FACS analysis and quantified as the percent of Annexin V and PI positive cells. The results represent average±standard deviation of 4 independent experiments.
FIGS. 33a-f are representative FACS analyses depicting a specific inhibition of hypoxia-induced apoptosis of endothelial cells by ADOPep1. Endothelial cells in Petri dishes were incubated for 24 hours with 5% FCS in supplement-free endothelial cell growth medium under normoxia (FIGS. 33a and d), exposed to 24 hours hypoxia (Figures c and f) or incubated under normoxia with 100 micromolar per 100,000 cells CoCl2 (FIGS. 33b and e), in the absence (FIGS. 33a-c) or presence (FIGS. 33d-f) of 10 ng/ml Adopep1 peptide (for 24 hours). Cells were trypsinized and immediately re-suspended in PBS with 5% FCS and 0.1% Na-azide. Samples containing 100,000 cells were tested for apoptosis using the Annexin-FITC (X axis) and propidium iodide (Y axis) kit (Bender Medsystems, Vienna, Austria), according to manufacturer's instructions. Results were analyzed by FACScan (Beckton Dickinson).
EC were incubated for 24 hours with 5% FCS in EC growth media in Petri dishes plates followed by 24 hours incubation under hypoxia conditions with ADOPep1 (10 ng/ml), anti GRP78 antibody (Santa Cruz Biotechnology, Calif., USA) (1 microgram/ml) or recombinant VEGF (10 ng/ml). The Annexin V FITC/PI detects the phosphatidylserin on the apoptotic cells using flow cytometry. Human Annexin V-FITC kit (Bender Medsystems, Vienna, Austria) was used for the measurement of EC apoptosis percentage following manufacturer's instructions. Samples were analyzed using a fluorescence activated cell sorter (FACScan Beckton Dickinson, Calif., USA).

## HWRRAHLLPRLP [ADOPep1, ADAM15 derived peptide, amino acids 286-297 of the metalloprotease domain]
[1]
  migration of endothelial cells: most significant increase in EC migration; also recorded: induced endothelial cell migration
[1]; listed as ADOPep 1
  migration of endothelial cells: induced increase in percent of migration
Endothelial cells [2]
  tube formation (length of the network of connected cells): significantly increased the length of the network of connected cells
GRP78
  GRP78 receptor internalization: induced GRP78 receptor internalization
Endothelial cells [3]
  effect on hypoxia-induced apoptosis of endothelial cells: prevented apoptosis to levels which are similar to those seen under normoxic conditions; also recorded: capable of inhibiting the hypoxia induced apoptosis; also recorded: remarkable decrease in the stained cells; also recorded: significant inhibition of hypoxia induced apoptosis; also recorded: a significant fraction of hypoxia-induced apoptosis was inhibited
Endothelial cells [3]; FIG. 17, hypoxia
  more efficient in decreasing apoptosis as compared to the anti-GRP78 antibody: 29%
Endothelial cells [3]; FIG. 17, hypoxia, ADOPep1 10 ng/ml, anti-GRP78 antibody 100 ng/ml
  percent apoptosis of endothelial cells (Annexin-V/PI): 25%
Endothelial cells [3]; FIG. 34, 24 hours hypoxia, 10 ng/ml
  inhibition of hypoxia induced apoptosis: approximately 40%
Endothelial cells [3]; 10 ng/ml
  percent apoptosis (PI/Annexin V): 28.6%

## HWRRP [Motif A, 5 amino acid motif peptide]
[1]
  migration of endothelial cells: induced endothelial cell migration
Endothelial cells [2]
  tube formation (length of the network of connected cells): significantly increased the length of the network of connected cells
Endothelial cells [3]
  effect on hypoxia-induced apoptosis of endothelial cells: capable of inhibiting the hypoxia induced apoptosis; also recorded: significant inhibition of hypoxia induced apoptosis
Endothelial cells [3]; 10 ng/ml
  percent apoptosis (PI/Annexin V): 35.8%
